Legend:
[1] = biological target: T1, androgen receptor (AR) (Homo sapiens, UniProt P10275); test: Antagonism of compounds on nuclear translocation of androgen receptor (PathHunter NHR cell lines); format: cell-based; conditions: antagonist mode, agonist 6a-Fluorotestosterone 0.06 μM (EC80)
T1 sequence (P10275 1-920): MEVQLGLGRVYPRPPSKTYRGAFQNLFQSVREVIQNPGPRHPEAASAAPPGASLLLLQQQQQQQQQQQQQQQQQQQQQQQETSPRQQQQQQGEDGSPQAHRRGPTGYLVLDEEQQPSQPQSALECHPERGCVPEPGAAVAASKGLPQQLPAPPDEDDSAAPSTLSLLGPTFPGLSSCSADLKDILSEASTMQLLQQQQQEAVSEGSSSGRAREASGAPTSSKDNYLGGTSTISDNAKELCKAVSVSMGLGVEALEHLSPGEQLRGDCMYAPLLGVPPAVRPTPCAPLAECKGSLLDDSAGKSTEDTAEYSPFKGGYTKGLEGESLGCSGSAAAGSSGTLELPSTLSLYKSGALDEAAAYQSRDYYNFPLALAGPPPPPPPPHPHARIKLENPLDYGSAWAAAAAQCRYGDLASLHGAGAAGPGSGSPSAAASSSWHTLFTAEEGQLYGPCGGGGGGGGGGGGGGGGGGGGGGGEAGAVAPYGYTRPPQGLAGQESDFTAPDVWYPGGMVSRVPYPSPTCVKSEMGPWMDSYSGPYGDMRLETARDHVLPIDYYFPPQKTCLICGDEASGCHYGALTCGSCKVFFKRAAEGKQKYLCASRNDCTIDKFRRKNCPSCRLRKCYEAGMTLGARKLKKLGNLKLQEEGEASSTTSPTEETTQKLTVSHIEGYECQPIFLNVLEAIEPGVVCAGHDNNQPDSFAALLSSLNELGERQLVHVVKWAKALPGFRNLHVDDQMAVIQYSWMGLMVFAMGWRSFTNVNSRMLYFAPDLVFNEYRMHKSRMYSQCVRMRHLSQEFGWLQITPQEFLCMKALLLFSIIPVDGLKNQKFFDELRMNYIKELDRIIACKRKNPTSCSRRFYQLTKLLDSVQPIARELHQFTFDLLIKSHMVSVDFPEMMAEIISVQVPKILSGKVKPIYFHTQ

[2] = system: Human prostate cancer LNCaP-FGC cells; test: In vivo pharmacodynamic study on subcutaneous xenograft tumor model of human prostate cancer LNCaP-FGC cells; set-up: species or system CB-17 SCID mice; conditions: after 21 days of administration, vs solvent control
Description: 2.1 Experimental Animals • Species: Mice • Strain: CB-17 SCID mice • Week age and body weight: 6-8 weeks old, 18-22 g body weight • Gender: male • Supplier: Beijing Vital River Laboratory Animal Technology Co., Ltd • Animal Certificate No.: 11400700184227 3. Experimental Method and Steps 3.1 Cell Culture
Human prostate cancer LNCaP-FGC cells (ATCC, Manassas, Virginia) were cultured in vitro monolayers under the culture conditions of RPM11640 medium supplemented with […] fetal bovine serum at 37° C. with 5% CO2. Routine digestion treatment with trypsin-EDTA was performed twice a week for passage. When the cell saturation was 80%-90%, the cells were collected, counted, and inoculated.
0.2 mL (10×10^6) of LNCaP-FGC cells (10×10^6+Matrigel, 1:1) was inoculated subcutaneously to the right back of each CB-17 SCID mouse. When the average tumor volume reached 100-150 mm^3, administration in groups was started.
The tumor diameters were measured with a vernier caliper twice a week. The calculation formula of the tumor volume is: V=0.5a×b^2, wherein a and b represent the long diameter and the short diameter of the tumor, respectively. The antitumor efficacy of the compounds were evaluated by TGI (%) or a relative tumor proliferation rate T/C (%). TGI(%)=[(1−(average tumor volume of a treatment group at the end of drug administration−average tumor volume of the treatment group at the beginning of drug administration))/(average tumor volume of the vehicle control group at the end of treatment−average tumor volume of the vehicle control group at the beginning of treatment)]×100%. The calculation formula of the relative tumor proliferation rate T/C (%) is as follows: T/C %=TRTV/CRTV×100% (TRTV: RTV of a treatment group; CRTV: RTV of a negative control group). The relative tumor volume (RTV) is calculated based on the tumor measurement results, and the calculation formula is RTV=Vt/V0, wherein V0 is the average tumor volume measured at the time of administration in groups (i.e., do), Vt is the average tumor volume at one measurement, and TRTV and CRTV are the data obtained on the same day.
The statistical analysis includes mean and standard error of mean (SEM) of the tumor volume at each time point for each group. […] The comparison between two groups was analyzed by T-test, and the comparison between three or more groups was analyzed by one-way ANOVA. If there was a significant difference in the F value, the Games-Howell method was used for testing. If there was no significant difference in the F value, the Dunnet (2-sided) method was used for analysis. All data analysis was performed by using SPSS 17.0. “p<0.05” was considered a significant difference.

| Compound | IC50 [1] [µM] | TGI ([2]; 10 mg/kg PO QD) [%] | relative tumor proliferation rate T/C ([2]; 10 mg/kg PO QD) [%] | TGI ([2]; 20 mg/kg PO QD) [%] | relative tumor proliferation rate T/C ([2]; 20 mg/kg PO QD) [%] | TGI ([2]; 50 mg/kg PO QD) [%] | relative tumor proliferation rate T/C ([2]; 50 mg/kg PO QD) [%] |
| --- | --- | --- | --- | --- | --- | --- | --- |
| CCc1cc(=O)n2cc(N3C(=S)N(c4ccc(C#N)c(C(F)(F)F)c4)C(=O)C3(C)C)cc(F)c2n1 [Compound 35] | 2.31 | 59.36 | 47.39 | 76.00 | 32.47 | – | – |
| CCc1nc(OCCO)c2cc(N3C(=S)N(c4ccc(C#N)c(C(F)(F)F)c4)C(=O)C3(C)C)cc(F)c2n1 [Compound 10] | 1.71 | – | – | – | – | 83.0 | 23.8 |
| CCc1cc(=O)n2cc(N3C(=S)N(c4ccc(C#N)c(Cl)c4)C(=O)C3(C)C)cc(F)c2n1 [Compound 58] | 0.95 | 62.75 | 43.93 | 76.16 | 32.37 | – | – |

Source: patent US11866433B2, “Diarylthiohydantoin compound as androgen receptor antagonist” (CHIA TAI TIANQING PHARMACEUTICAL GROUP CO., LTD., priority 2017, dated 2024)
